Experimental data reported in patent US11447465B2, “Pharmaceutical compounds for treatment of medical disorders” (Achillion Pharmaceuticals, Inc., priority 2017, dated 2022).

Each compound was assayed against Human Factor D (Homo sapiens (Human), UniProt P00746) (assay: Human Factor D Assay). Conditions: Table 5; Human Factor D 80 nM, substrate Z-L-Lys-SBzl; read-out: IC50 (Stars).
Format: biochemical
Description: Human Factor D (purified from human serum, Complement Technology, Inc.) at 80 nM final concentration is incubated with test compound at various concentrations for 5 min at room temperature in 50 mM Tris, 1M NaCl, pH 7.5. A synthetic substrate Z-L-Lys-SBzl and DTNB (Ellman's reagent) are added to final concentrations of 100 μM each. Absorbance at 405 nm (A405) is recorded at 30 second intervals for 30 min using a microplate spectrophotometer. IC50 values are calculated by nonlinear regression of Complement Factor D reaction rates as a function of test compound concentration.

Chain of Human Factor D (P00746 26-253): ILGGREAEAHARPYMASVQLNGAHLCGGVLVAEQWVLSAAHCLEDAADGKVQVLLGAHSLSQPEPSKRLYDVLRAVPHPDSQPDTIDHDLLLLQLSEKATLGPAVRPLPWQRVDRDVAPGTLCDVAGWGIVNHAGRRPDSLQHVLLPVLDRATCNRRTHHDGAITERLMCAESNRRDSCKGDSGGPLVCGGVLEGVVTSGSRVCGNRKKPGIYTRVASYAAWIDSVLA

`CC(=O)c1cn(CC(=O)N2[C@H]3C[C@@]3(CN3CCN(C)CC3)C[C@H]2C(=O)NCc2cccc(Cl)c2F)c2cc(P(=O)(O)O)ccc12` [Compound T-45, (3-acetyl-1-(2-((1S,3S,5S)-3-((3-chloro-2-fluorobenzyl)carbamoyl)-5-((4-methylpiperazin-1-yl)methyl)-2-azabicyclo[3.1.0]hexan-2-yl)-2-oxoethyl)-1H-indol-6-yl)phosphonic acid] and `CC(=O)c1cn(CC(=O)N2C3CC3(CN(C)C)C[C@H]2C(=O)NCc2cccc(Cl)c2F)c2cc(P(=O)(O)O)ccc12` (stereo partly drawn) [Compound T-46, (3-acetyl-1-(2-((3S)-3-((3-chloro-2-fluorobenzyl)carbamoyl)-5-((dimethylamino)methyl)-2-azabicyclo[3.1.0]hexan-2-yl)-2-oxoethyl)-1H-indol-6-yl)phosphonic acid] fall in the same range of IC50: 1 to 10 µM for the first, 1 to 10 µM for the second.

First: CC(=O)c1cn(CC(=O)N2[C@H](C(=O)NCc3cccc(Cl)c3F)C[C@@]3(CN(C)C)C[C@@H]23)c2cc(P(C)(=O)O)ccc12 [Compound T-47, (3-acetyl-1-(2-((1R,3S,5R)-3-((3-chloro-2-fluorobenzyl)carbamoyl)-5-((dimethylamino)methyl)-2-azabicyclo[3.1.0]hexan-2-yl)-2-oxoethyl)-1H-indol-6-yl)(methyl)phosphinic acid]
Second: CC(=O)c1cn(CC(=O)N2[C@H]3C[C@@]3(CN(C)C)C[C@H]2C(=O)NCc2cccc(Cl)c2F)c2cc(P(C)(=O)O)ccc12 [Compound T-48, (3-acetyl-1-(2-((1S,3S,5S)-3-((3-chloro-2-fluorobenzyl)carbamoyl)-5-((dimethylamino)methyl)-2-azabicyclo[3.1.0]hexan-2-yl)-2-oxoethyl)-1H-indol-6-yl)(methyl)phosphinic acid]
The IC50 of the first is lower: less than 1 µM for the first, 1 to 10 µM for the second. The first is the more potent here.

First: CC(=O)c1nn(CC(=O)N2[C@H](C(=O)Nc3nc(Br)ccc3C)C[C@@]3(CN(C)C)C[C@@H]23)c2cc(C(=O)NS(=O)(=O)C3CC3)ccc12 [Compound T-49, 3-acetyl-1-(2-((1R,3S,5R)-3-((6-bromo-3-methylpyridin-2-yl)carbamoyl)-5-((dimethylamino)methyl)-2-azabicyclo[3.1.0]hexan-2-yl)-2-oxoethyl)-N-(cyclopropylsulfonyl)-1H-indazole-6-carboxamide]
Second: CC(=O)c1nn(CC(=O)N2[C@H]3C[C@@]3(CN(C)C)C[C@H]2C(=O)Nc2nc(Br)ccc2C)c2cc(C(=O)NS(=O)(=O)C3CC3)ccc12 [Compound T-50, 3-acetyl-1-(2-((1S,3S,5S)-3-((6-bromo-3-methylpyridin-2-yl)carbamoyl)-5-((dimethylamino)methyl)-2-azabicyclo[3.1.0]hexan-2-yl)-2-oxoethyl)-N-(cyclopropylsulfonyl)-1H-indazole-6-carboxamide]
The IC50 of the first is lower: less than 1 µM for the first, 1 to 10 µM for the second.

Same assay, conditions: Table 6; Human Factor D 80 nM, substrate Z-L-Lys-SBzl; read-out: IC5 (Stars)

`CC(=O)c1nn(CC(=O)N2[C@H](C(=O)Nc3nc(Br)ccc3C3CC3)C[C@@]3(C)C[C@@H]23)c2ccc(O[C@@H]3CO[C@H]4[C@@H]3OC[C@H]4O)cc12` [Compound T-51, (1R,3S,5R)-2-(2-(3-acetyl-5-(((3R,3aR,6R,6aR)-6-hydroxy-hexahydrofuro[3,2-b]furan-3-yl)oxy)-1H-indazol-1-yl)acetyl)-N-(6-bromo-3-cyclopropyl-pyridin-2-yl)-5-methyl-2-azabicyclo[3.1.0]hexane-3-carboxamide] and `CC(=O)c1nn(CC(=O)N2[C@H](C(=O)Nc3nc(Br)ccc3C)C[C@@]3(C)C[C@@H]23)c2ccc(O[C@@H]3CO[C@H]4[C@@H]3OC[C@H]4O)cc12` [Compound T-52, (1R,3S,5R)-2-(2-(3-acetyl-5-(((3R,3aR,6R,6aR)-6-hydroxy-hexahydrofuro[3,2-b]furan-3-yl)oxy)-1H-indazol-1-yl)acetyl)-N-(6-bromo-3-methylpyridin-2-yl)-5-methyl-2-azabicyclo[3.1.0]hexane-3-carboxamide] cannot be ordered by IC50: less than 1 µM for the first, less than 1 µM for the second.

`CC(=O)O[C@@H]1CO[C@H]2[C@@H]1OC[C@H]2Oc1ccc2c(c1)c(C(C)=O)nn2CC(=O)N1C[C@H](F)C[C@H]1C(=O)Nc1nc(Br)ccc1C` [Compound T-53, (3R,3aR,6R,6aR)-6-((3-acetyl-1-(2-((2S,4R)-2-((6-bromo-3-methylpyridin-2-yl)carbamoyl)-4-fluoropyrrolidin-1-yl)-2-oxoethyl)-1H-indazol-5-yl)oxy)hexahydrofuro[3,2-b]furan-3-yl acetate] and `CC(=O)c1nn(CC(=O)N2C[C@H](F)C[C@H]2C(=O)Nc2nc(Br)ccc2C)c2ccc(O[C@@H]3CO[C@H]4[C@@H]3OC[C@H]4OC(=O)[C@@H](N)C(C)C)cc12` [Compound T-58, (3R,3aR,6R,6aR)-6-((3-acetyl-1-(2-((2S,4R)-2-((6-bromo-3-methylpyridin-2-yl)carbamoyl)-4-fluoropyrrolidin-1-yl)-2-oxoethyl)-lH-indazol-5-yl)oxy)hexahydrofuro[3,2-b]furan-3-yl L-valinate] cannot be ordered by IC50: less than 1 µM for the first, less than 1 µM for the second.

`CC(=O)c1nn(CC(=O)N2C[C@H](F)C[C@H]2C(=O)Nc2cccc(Br)n2)c2ccc(OCCS(=O)(=O)CC3(C)COC3)cc12` [Compound T-54, (2S,4R)-1-(2-(3-acetyl-5-(2-(((3-methyloxetan-3-yl)methyl)sulfonyl)ethoxy)-1H-indazol-1-yl)acetyl)-N-(6-bromopyridin-2-yl)-4-fluoro-pyrrolidine-2-carboxamide] and `CC(=O)c1nn(CC(=O)N2C[C@H](F)C[C@H]2C(=O)Nc2nc(Br)ccc2C)c2ccc(OCCS(=O)(=O)CC3(C)COC3)cc12` [Compound T-55, (2S,4R)-1-(2-(3-acetyl-5-(2-(((3-methyloxetan-3-yl)methyl)sulfonyl)ethoxy)-1H-indazol-1-yl)acetyl)-N-(6-bromo-3-methylpyridin-2-yl)-4-fluoro-pyrrolidine-2-carboxamide] cannot be ordered by IC50: less than 1 µM for the first, less than 1 µM for the second.

First: CC(=O)c1nn(CC(=O)N2C(C(=O)Nc3nc(Br)ccc3C)C[C@]3(C)C[C@H]23)c2ccc(OCCS(=O)(=O)CC3(C)COC3)cc12 (stereo partly drawn) [Compound T-56, (1S,5S)-2-(2-(3-acetyl-5-(2-(((3-methyloxetan-3-yl)methyl)sulfonyl)ethoxy)-1H-indazol-1-yl)acetyl)-N-(6-bromo-3-methylpyridin-2-yl)-5-methyl-2-azabicyclo[3.1.0]hexane-3-carboxamide]
Second: CC(=O)c1nn(CC(=O)N2[C@H](C(=O)Nc3nc(Br)ccc3C)C[C@@]3(C)C[C@@H]23)c2ccc(OCCS(=O)(=O)CC3(C)COC3)cc12 [Compound T-59, (1R,5R)-2-(2-(3-acetyl-5-(2-(((3-methyloxetan-3-yl)methyl)sulfonyl)ethoxy)-1H-indazol-1-yl)acetyl)-N-(6-bromo-3-methylpyridin-2-yl)-5-methyl-2-azabicyclo[3.1.0]hexane-3-carboxamide]
The IC50 of the first is higher: 1 to 10 µM for the first, less than 1 µM for the second. The second is the more potent here.

`CC(=O)c1nn(CC(=O)N2C[C@H](F)C[C@H]2C(=O)Nc2cccc(Br)n2)c2ccc(O[C@@H]3CO[C@H]4[C@@H]3OC[C@H]4OC(=O)[C@@H](N)C(C)C)cc12` [Compound T-57, (3R,3aR,6R,6aR)-6-((3-acetyl-1-(2-((2S,4R)-2-((6-bromopyridin-2-yl)carbamoyl)-4-fluoropyrrolidin-1-yl)-2-oxoethyl)-1H-indazol-5-yl)oxy)hexahydrofuro[3,2-b]furan-3-yl L-valinate] and `CC(=O)O[C@@H]1CO[C@H]2[C@@H]1OC[C@H]2Oc1ccc2c(c1)c(C(C)=O)nn2CC(=O)N1C[C@H](F)C[C@H]1C(=O)Nc1cccc(Br)n1` [Compound T-63, (3R,3aR,6R,6aR)-6-((3-acetyl-1-(2-((2S,4R)-2-((6-bromopyridin-2-yl)carbamoyl)-4-fluoropyrrolidin-1-yl)-2-oxoethyl)-1H-indazol-5-yl)oxy)hexa-hydrofuro[3,2-b]furan-3-yl acetate] cannot be ordered by IC50: less than 1 µM for the first, less than 1 µM for the second.

`CS(=N)(=O)COc1ccc2c(C(N)=O)nn(CC(=O)N3C[C@H](F)C[C@H]3C(=O)Nc3cccc(-c4ccccc4Cl)c3F)c2c1` (stereo partly drawn) [Compound T-60, 1-(2-((2S,4R)-2-((2′-chloro-2-fluoro-[1,1′-biphenyl]-3-yl)carbamoyl)-4-fluoropyrrolidin-1-yl)-2-oxoethyl)-6-((S-methylsulfonimidoyl)methoxy)-1H-indazole-3-carboxamide] and `CS(=O)(COc1ccc2c(C(N)=O)nn(CC(=O)N3C[C@H](F)C[C@H]3C(=O)Nc3cccc(-c4ccccc4Cl)c3F)c2c1)=NC#N` (stereo partly shown) [Compound T-62] cannot be ordered by IC50: less than 1 µM for the first, less than 1 µM for the second.

With `C/S(COc1ccc2c(C(N)=O)nn(CC(=O)N3C[C@H](F)C[C@H]3C(=O)Nc3cccc(-c4ccccc4Cl)c3F)c2c1)=N\C#N` (stereo partly shown) [Compound T-61] the IC50 was less than 1 µM.

Same assay, conditions: Table 7; read-out: IC5 (Stars)

`Cc1ccc(Br)nc1NC(=O)[C@@H]1C[C@@]2(C)C[C@H]2N1C(=O)Cn1nc(C(N)=O)c2cc(NC(=O)C3CCCC3(F)F)ccc21` (stereo partly drawn) [Compound T-65, 1-(2-((1R,3S,5R)-3-((6-bromo-3-methylpyridin-2-yl)carbamoyl)-5-methyl-2-azabicyclo[3.1.0]hexan-2-yl)-2-oxoethyl)-5-(2,2-difluorocyclopentane-1-carboxamido)-1H-indazole-3-carboxamide] and `CC(=O)c1nn(CC(=O)N2[C@H](C(=O)Nc3nc(Br)ccc3C)C[C@@]3(C)C[C@@H]23)c2c(C)cc(NC(=O)C3CCCC3(F)F)cc12` (stereo partly drawn) [Compound T-66, (1R,3S,5R)-2-(2-(3-acetyl-5-(2,2-difluorocyclopentane-1-carboxamido)-7-methyl-1H-indazol-1-yl)acetyl)-N-(6-bromo-3-methylpyridin-2-yl)-5-methyl-2-azabicyclo[3.1.0]hexane-3-carboxamide] cannot be ordered by IC50: less than 1 µM for the first, less than 1 µM for the second.

For `CC(=O)c1nn(CC(=O)N2[C@H](C(=O)NCc3cccc(Cl)c3F)C[C@@]3(C)C[C@@H]23)c2c(C)cc(NC(=O)N3CCCC(F)(F)C3)cc12` [Compound T-67, (1R,3S,5R)-2-(2-(3-acetyl-5-(3,3-difluoropiperidine-1-carboxamido)-7-methyl-1H-indazol-1-yl)acetyl)-N-(3-chloro-2-fluorobenzyl)-5-methyl-2-azabicyclo[3.l.0]hexane-3-carboxamide], the IC50 was less than 1 µM.
